Data as given in patent US12622910B2, “Inhibitors of Bruton's tyrosine kinase and methods of their use” (Janssen Pharmaceutica NV, priority 2021, dated 2026).
Like-named read-outs stand apart in the source and are kept apart here. Marks after values point to notes of the source that are not given here.

Assay: Phase 1 first-in-human study, plasma pharmacokinetics
Type: in vivo
Conditions: for half-life / Tmax / AUC(0-inf) / Cmax / AUC(0-t): male, human, plasma, po
Method: Safety, tolerability, PK, and BTKO were assessed for six doses of compound of Formula (III) oral solution (4, 12, 36, 100, 200, 400 mg) in participants under fasted conditions. The SAD part comprised 10 cohorts of 8 participants each (FIG. 1). In each cohort receiving compound of Formula (III) oral solution (Cohorts 1-9), 6 participants were randomized to receive compound of Formula (III) and 2 to receive placebo. All participants in Cohort 10 received compound of Formula (III) as an oral capsule. All 10 cohorts included 2 sentinel participants who were dosed ˜24 hours prior to the rest of the cohort. In cohorts receiving compound of Formula (III) oral solution, 1 sentinel participant received compound of Formula (III) and the other received placebo.
Six male escalating dose cohorts received a single oral dose of 4, 12, 36, 100, 200, 400 mg compound of Formula (III) or placebo solution under fasted conditions. Gender effects were assessed in 2 female cohorts whose participants received either a 36 or 100 mg dose of compound of Formula (III) or placebo as an oral solution under fasted conditions. Food effects were evaluated in a male cohort receiving compound of Formula (III) 100 mg or placebo as an oral solution after a high-fat breakfast.
Safety, tolerability, and PK of a solid dose formulation of compound of Formula (III) were assessed in an additional male cohort (Cohort 10) that received 3×35 mg (105 mg) of compound of Formula (III) in the fasted state. Since all the participants received the same dose of compound of Formula (III), this cohort was not blinded.
Safety, tolerability, PK, and BTKO following multiple compound of Formula (III) doses were evaluated in 3 dose escalation cohorts with a total of 18 participants (males: 9, females: 9) receiving active study drug. In each cohort, 3 males and 3 females were randomized to receive 36 mg once-daily (QD), 100 mg QD, or 200 mg QD compound of Formula (III) oral solution and 3 participants (males: 2; female: 1) to receive placebo. Two male participants in each cohort served as sentinel participants: one received compound of Formula (III) and other received placebo ˜48 hours prior to other participants in the cohort. All safety and tolerability data (through the follow-up visit), PK data (through at least 24 hours after last dose administration), and all available PD data were reviewed from each cohort before a decision was made to dose escalate.
Sample collection—For the PK assessment of compound of Formula (III), venous blood samples (2 to 4 mL each) were collected predose and at 15 min, 0.5, 1, 1.5, 2, 2.5, 3, 4, 6, 8, 12, 24, 36, 48, and 72 hours post-dose in Part 1. In Part 2, samples were collected predose and at 15 min, 0.5, 1, 1.5, 2, 2.5, 3, 4, 6, 8, 12 hours post-dose on day 1, predose and 1 hour post-dose on days 2-9, and predose and at 15 min, 0.5, 1, 1.5, 2, 2.5, 3, 4, 6, 8, 12, 24, 48, and 72 hours after the last dose on day 10. Plasma samples were analyzed to determine concentrations of compound of Formula (III) using a scientific validated, specific, and sensitive liquid chromatography-mass spectrometry (LC-MS/MS) method.
The PK analysis for the compound of Formula (III) samples was performed using a non-compartmental method with validated Phoenix® WinNonlin® (version 8.0, Certara L.P.).

[1] = 36 mg, single 36 mg oral solution, male fasted
[2] = 100 mg, single 100 mg oral solution, male fasted
[3] = 100 mg, single 100 mg oral solution, male fed (high-fat breakfast)
[4] = 105 mg, single 105 mg (3 × 35 mg) oral capsule, male fasted
[5] = 200 mg, single 200 mg oral solution, male fasted
[6] = 400 mg, single 400 mg oral solution, male fasted
[7] = single 12 mg oral solution, male fasted
[8] = single 100 mg oral solution, female fasted

C=CC(=O)N[C@H]1CCC[C@H]1NC(=O)c1sc2nccc3c2c1NC(=O)N3c1cnc(CC(C)C)cc1C (atropisomer, axis not shown) [compound of Formula (III), N-((1R,2S)-2-Acrylamidocyclopentyl)-5-(S)-(6-isobutyl-4-methylpyridin-3-yl)-4-oxo-4,5-dihydro-3H-1-thia-3,5,8-triazaacenaphthylene-2-carboxamide]
half-life (12 mg, single 12 mg oral solution, male fasted, read-out: t1/2, λz (converted)): 1.6 h | Tmax (12 mg, single 12 mg oral solution, male fasted, read-out: tmax, median (min-max)): 1 h | AUC(0-inf) [1]: 644 ng·h/mL | Cmax [1]: 200 ng/mL | AUC(0-t) (36 mg, single 36 mg oral solution, male fasted, read-out: AUC0-24 h): 649 ng·h/mL | AUC(0-t) (36 mg, single 36 mg oral solution, male fasted, read-out: AUClast): 649 ng·h/mL | half-life (36 mg, single 36 mg oral solution, male fasted, read-out: t1/2, dom (converted)): 1.6 h | half-life (36 mg, single 36 mg oral solution, male fasted, read-out: t1/2, λz (converted)): 2.1 h | Tmax (36 mg, single 36 mg oral solution, male fasted, read-out: tmax, median (min-max)): 1 h | AUC(0-inf) [2]: 20.6 ng·h/mL | Cmax [2]: 923 ng/mL | AUC(0-t) (100 mg, single 100 mg oral solution, male fasted, read-out: AUC0-24 h): 2140 ng·h/mL | AUC(0-t) (100 mg, single 100 mg oral solution, male fasted, read-out: AUClast): 2140 ng·h/mL | half-life (100 mg, single 100 mg oral solution, male fasted, read-out: t1/2, dom (converted)): 1.9 h | half-life (100 mg, single 100 mg oral solution, male fasted, read-out: t1/2, λz (converted)): 5 h | Tmax (100 mg, single 100 mg oral solution, male fasted, read-out: tmax, median (min-max)): 0.5 h | AUC(0-inf) [3]: 1760 ng·h/mL | Cmax [3]: 277 ng/mL | AUC(0-t) (100 mg, single 100 mg oral solution, male fed (high-fat breakfast), read-out: AUC0-24 h): 1720 ng·h/mL | AUC(0-t) (100 mg, single 100 mg oral solution, male fed (high-fat breakfast), read-out: AUClast): 1750 ng·h/mL | half-life (100 mg, single 100 mg oral solution, male fed (high-fat breakfast), read-out: t1/2, dom (converted)): 2 h | half-life (100 mg, single 100 mg oral solution, male fed (high-fat breakfast), read-out: t1/2, λz (converted)): 10.8 h | Tmax (100 mg, single 100 mg oral solution, male fed (high-fat breakfast), read-out: tmax, median (min-max)): 2.5 h | AUC(0-inf) [4]: 1500 ng·h/mL | Cmax [4]: 345 ng/mL | AUC(0-t) (105 mg, single 105 mg (3 × 35 mg) oral capsule, male fasted, read-out: AUC0-24 h): 1320 ng·h/mL | AUC(0-t) (105 mg, single 105 mg (3 × 35 mg) oral capsule, male fasted, read-out: AUClast): 1450 ng·h/mL | half-life (105 mg, single 105 mg (3 × 35 mg) oral capsule, male fasted, read-out: t1/2, dom (converted)): 1.9 h | half-life (105 mg, single 105 mg (3 × 35 mg) oral capsule, male fasted, read-out: t1/2, λz (converted)): 14.2 h | Tmax (105 mg, single 105 mg (3 × 35 mg) oral capsule, male fasted, read-out: tmax, median (min-max)): 1.5 h | AUC(0-inf) [5]: 2780 ng·h/mL | Cmax [5]: 1210 ng/mL | AUC(0-t) (200 mg, single 200 mg oral solution, male fasted, read-out: AUC0-24 h): 2750 ng·h/mL | AUC(0-t) (200 mg, single 200 mg oral solution, male fasted, read-out: AUClast): 277 ng·h/mL | half-life (200 mg, single 200 mg oral solution, male fasted, read-out: t1/2, dom (converted)): 1.8 h | half-life (200 mg, single 200 mg oral solution, male fasted, read-out: t1/2, λz (converted)): 12.9 h | Tmax (200 mg, single 200 mg oral solution, male fasted, read-out: tmax, median (min-max)): 1 h | AUC(0-inf) [6]: 4200 ng·h/mL | Cmax [6]: 1920 ng/mL | AUC(0-t) (400 mg, single 400 mg oral solution, male fasted, read-out: AUC0-24 h): 3700 ng·h/mL | AUC(0-t) (400 mg, single 400 mg oral solution, male fasted, read-out: AUClast): 3830 ng·h/mL | half-life (400 mg, single 400 mg oral solution, male fasted, read-out: t1/2, dom (converted)): 2.2 h | half-life (400 mg, single 400 mg oral solution, male fasted, read-out: t1/2, λz (converted)): 13.2 h | Tmax (400 mg, single 400 mg oral solution, male fasted, read-out: tmax, median (min-max)): 0.75 h | half-life (single 4 to 400 mg oral solution, male fasted, read-out: mean t1/2, dom across doses): 1.5 to 2.2 h | half-life (single 4 to 400 mg oral solution, male fasted, read-out: mean t1/2, λz across doses): 1.6 to 13.2 h | Tmax (single 4 to 400 mg oral solution, male fasted, read-out: median tmax across doses): 0.5 to 1 h | AUC∞/Dose (single 4 mg oral solution, male fasted): 38.9 (12.5) h · ng/mL/mg | AUC∞/Dose [7]: 26.4 (9.07) h · ng/mL/mg | Cmax/Dose [7]: 7.33 ng/mL | mean Cmax and AUCs, females higher than males by (single 36 mg fasted): 17-27% | AUC∞/Dose (single 36 mg oral solution, female fasted): 1.9 (0.5) h · ng/mL/mg | AUC∞/Dose (single 36 mg oral solution, male fasted): 17.9 (6.64) h · ng/mL/mg | mean Cmax and AUCs, females lower than males by (single 100 mg fasted): 30-35% | AUC∞/Dose [8]: 13.4 (4.60) h · ng/mL/mg | t1/2, λz [8]: 11.67 (7.8)^c h | AUC∞/Dose (single 100 mg oral solution, male fasted): 20.6 (7.60) h · ng/mL/mg | AUC∞/Dose (single 100 mg oral solution, male fed (high-fat breakfast)): 17.6 (4.20) h · ng/mL/mg | Cmax lowered by high-fat meal (single 100 mg, fed vs fasted): approximately 70% | AUC∞/Dose (single 105 mg (3 × 35 mg) oral capsule, male fasted): 14.3 (7.59) h · ng/mL/mg | AUC∞/Dose (single 200 mg oral solution, male fasted): 13.9 (3.80) h · ng/mL/mg | AUC∞/Dose (single 400 mg oral solution, male fasted): 9.11 (4.68) h · ng/mL/mg
